Strand notation (5' to 3'): a small letter for the sugar, then the base; units joined by * are phosphorothioate-linked, units joined directly phosphodiester-linked; [ ] holds rarer units or linkages, { } end groups; capitals alone tell only the bases. e = 2'-O-(2-methoxyethyl) (MOE); [5mC] = 5-methylcytosine; d = 2'-deoxy (DNA)
What follows are substances tested on human Factor 11 mRNA (assay: Antisense inhibition of human Factor 11 in HepG2 cells by microwalk gapmers, lipofectin, 75 nM (Example 3)). Conditions: HepG2, lipofectin, ~24 h, gapmers targeted to nucleobases 656 to 704 of SEQ ID NO: 1.
Type: cell-based
Experimental: These gapmers were designed by creating gapmers shifted slightly upstream and downstream (i.e. “microwalk”) of the original gapmers from Table 3. Gapmers were also created with various motifs, e.g. 5-10-5 MOE, 3-14-3 MOE, and 2-13-5 MOE. These gapmers were tested in vitro. Cultured HepG2 cells at a density of 10,000 cells per well were transfected using lipofectin reagent with 75 nM antisense oligonucleotide. After a treatment period of approximately 24 hours, RNA was isolated from the cells and Factor 11 mRNA levels were measured by quantitative real-time PCR. Factor 11 mRNA levels were adjusted according to total RNA content, as measured by RIBOGREEN. Results are presented as percent inhibition of Factor 11, relative to untreated control cells.
The chimeric antisense oligonucleotides in Table 4 were designed as 5-10-5 MOE, 3-14-3 MOE, and 2-13-5 MOE gapmers. The first listed gapmers in Table 4 are the original gapmers (see Table 3) from which the remaining gapmers were designed via microwalk and are designated by an asterisk. The 5-10-5 gapmers are 20 nucleotides in length, wherein the central gap segment is comprised of 10 2′-deoxynucleotides and is flanked on both sides (in the 5′ and 3′ directions) by wings comprising 5 nucleotides each. The 3-14-3 gapmers are 20 nucleotides in length, wherein the central gap segment is comprised of 14 2′-deoxynucleotides and is flanked on both sides (in the 5′ and 3′ directions) by wings comprising 3 nucleotides each. The 2-13-5 gapmers are 20 nucleotides in length, wherein the central gap segment is comprised of 13 2′-deoxynucleotides. The central gap is flanked on the 5′ end with a wing comprising 2 nucleotides and on the 3′ end with a wing comprising 5 nucleotides. For each of the motifs (5-10-5, 3-14-3, and 2-13-5), each nucleotide in the 5′ wing segment and each nucleotide in the 3′ wing segment has a 2′-MOE modification. The internucleoside linkages throughout each gapmer are phosphorothioate (P=S) linkages. All cytidine residues throughout each gapmer are 5-methyl cytidines. “Target start site” indicates the 5′-most nucleotide to which the gapmer is targeted. “Target stop site” indicates the 3′-most nucleotide to which the gapmer is targeted. Each gapmer listed in Table 4 is targeted to SEQ ID NO: 1 (GENBANK Accession No. NM_000128.3).

| Substance | % inhibition [%] |
| --- | --- |
| 416873 (antisense eA*e[5mC]*eA*dT*dA*dA*dA*dT*dG*dT*d[5mC]*dT*dT*dT*dG*dT*dT*eG*e[5mC]*eA) [compound 416873] | 51 |
| 416874 (antisense e[5mC]*eA*e[5mC]*dA*dT*dA*dA*dA*dT*dG*dT*d[5mC]*dT*dT*dT*dG*dT*eT*eG*e[5mC]) [compound 416874] | 49 |
| 416875 (antisense e[5mC]*e[5mC]*eA*d[5mC]*dA*dT*dA*dA*dA*dT*dG*dT*d[5mC]*dT*dT*dT*dG*eT*eT*eG) [compound 416875] | 75 |
| 416876 (antisense eT*e[5mC]*e[5mC]*dA*d[5mC]*dA*dT*dA*dA*dA*dT*dG*dT*d[5mC]*dT*dT*dT*eG*eT*eT) [compound 416876] | 37 |
| 416877 (antisense eG*eT*e[5mC]*d[5mC]*dA*d[5mC]*dA*dT*dA*dA*dA*dT*dG*dT*d[5mC]*dT*dT*eT*eG*eT) [compound 416877] | 51 |
| 416879 (antisense eA*eG*eG*dT*d[5mC]*d[5mC]*dA*d[5mC]*dA*dT*dA*dA*dA*dT*dG*dT*d[5mC]*eT*eT*eT) [compound 416879] | 92 |
| 416880 (antisense eT*eA*eG*dG*dT*d[5mC]*d[5mC]*dA*d[5mC]*dA*dT*dA*dA*dA*dT*dG*dT*e[5mC]*eT*eT) [compound 416880] | 66 |
| 416881 (antisense e[5mC]*eT*eA*dG*dG*dT*d[5mC]*d[5mC]*dA*d[5mC]*dA*dT*dA*dA*dA*dT*dG*eT*e[5mC]*eT) [compound 416881] | 81 |
| 416882 (antisense eT*e[5mC]*eT*dA*dG*dG*dT*d[5mC]*d[5mC]*dA*d[5mC]*dA*dT*dA*dA*dA*dT*eG*eT*e[5mC]) [compound 416882] | 60 |
| 416883 (antisense eG*eT*e[5mC]*dT*dA*dG*dG*dT*d[5mC]*d[5mC]*dA*d[5mC]*dA*dT*dA*dA*dA*eT*eG*eT) [compound 416883] | 82 |
| 416884 (antisense eT*eG*eT*d[5mC]*dT*dA*dG*dG*dT*d[5mC]*d[5mC]*dA*d[5mC]*dA*dT*dA*dA*eA*eT*eG) [compound 416884] | 69 |
| 416885 (antisense eA*eT*eG*dT*d[5mC]*dT*dA*dG*dG*dT*d[5mC]*d[5mC]*dA*d[5mC]*dA*dT*dA*eA*eA*eT) [compound 416885] | 67 |
| 416886 (antisense e[5mC]*eA*eT*dG*dT*d[5mC]*dT*dA*dG*dG*dT*d[5mC]*d[5mC]*dA*d[5mC]*dA*dT*eA*eA*eA) [compound 416886] | 74 |
| 416888 (antisense eT*eT*e[5mC]*dA*dT*dG*dT*d[5mC]*dT*dA*dG*dG*dT*d[5mC]*d[5mC]*dA*d[5mC]*eA*eT*eA) [compound 416888] | 76 |
| 416889 (antisense e[5mC]*eT*eT*d[5mC]*dA*dT*dG*dT*d[5mC]*dT*dA*dG*dG*dT*d[5mC]*d[5mC]*dA*e[5mC]*eA*eT) [compound 416889] | 60 |
| 416890 (antisense e[5mC]*e[5mC]*eT*dT*d[5mC]*dA*dT*dG*dT*d[5mC]*dT*dA*dG*dG*dT*d[5mC]*d[5mC]*eA*e[5mC]*eA) [compound 416890] | 87 |
| 416891 (antisense e[5mC]*e[5mC]*e[5mC]*dT*dT*d[5mC]*dA*dT*dG*dT*d[5mC]*dT*dA*dG*dG*dT*d[5mC]*e[5mC]*eA*e[5mC]) [compound 416891] | 81 |
| 416893 (antisense eT*eG*e[5mC]*d[5mC]*d[5mC]*dT*dT*d[5mC]*dA*dT*dG*dT*d[5mC]*dT*dA*dG*dG*eT*e[5mC]*e[5mC]) [compound 416893] | 90 |
| 416894 (antisense eA*eT*eG*d[5mC]*d[5mC]*d[5mC]*dT*dT*d[5mC]*dA*dT*dG*dT*d[5mC]*dT*dA*dG*eG*eT*e[5mC]) [compound 416894] | 85 |
| 416897 (antisense eT*eT*eT*dA*dT*dG*d[5mC]*d[5mC]*d[5mC]*dT*dT*d[5mC]*dA*dT*dG*dT*d[5mC]*eT*eA*eG) [compound 416897] | 66 |

Same assay, conditions: HepG2 cells, lipofectin, gapmers targeted to nucleobases 738 to 762 of SEQ ID NO: 1

| Substance | % inhibition [%] |
| --- | --- |
| 416898 (antisense e[5mC]*e[5mC]*eG*dT*dG*d[5mC]*dA*dT*d[5mC]*dT*dT*dT*d[5mC]*dT*dT*dG*dG*e[5mC]*eA*eT) [compound 416898] | 88 |
| 416899 (antisense eT*e[5mC]*e[5mC]*dG*dT*dG*d[5mC]*dA*dT*d[5mC]*dT*dT*dT*d[5mC]*dT*dT*dG*eG*e[5mC]*eA) [compound 416899] | 86 |
| 416900 (antisense eA*eT*e[5mC]*d[5mC]*dG*dT*dG*d[5mC]*dA*dT*d[5mC]*dT*dT*dT*d[5mC]*dT*dT*eG*eG*e[5mC]) [compound 416900] | 90 |
| 416901 (antisense e[5mC]*eA*eT*d[5mC]*d[5mC]*dG*dT*dG*d[5mC]*dA*dT*d[5mC]*dT*dT*dT*d[5mC]*dT*eT*eG*eG) [compound 416901] | 65 |
| 416902 (antisense eT*e[5mC]*eA*dT*d[5mC]*d[5mC]*dG*dT*dG*d[5mC]*dA*dT*d[5mC]*dT*dT*dT*d[5mC]*eT*eT*eG) [compound 416902] | 46 |
| 416903 (antisense eG*eT*e[5mC]*dA*dT*d[5mC]*d[5mC]*dG*dT*dG*d[5mC]*dA*dT*d[5mC]*dT*dT*dT*e[5mC]*eT*eT) [compound 416903] | 88 |

Same assay, conditions: HepG2 cells, lipofectin, gapmers targeted to nucleobases 1018 to 1042 of SEQ ID NO: 1

| Substance | % inhibition [%] |
| --- | --- |
| 416904 (antisense e[5mC]*e[5mC]*eG*dG*dG*dA*dT*dG*dA*dT*dG*dA*dG*dT*dG*d[5mC]*dA*eG*eA*eT) [compound 416904] | 90 |
| 416905 (antisense eA*e[5mC]*e[5mC]*dG*dG*dG*dA*dT*dG*dA*dT*dG*dA*dG*dT*dG*d[5mC]*eA*eG*eA) [compound 416905] | 85 |
| 416906 (antisense eA*eA*e[5mC]*d[5mC]*dG*dG*dG*dA*dT*dG*dA*dT*dG*dA*dG*dT*dG*e[5mC]*eA*eG) [compound 416906] | 88 |
| 416907 (antisense e[5mC]*eA*eA*d[5mC]*d[5mC]*dG*dG*dG*dA*dT*dG*dA*dT*dG*dA*dG*dT*eG*e[5mC]*eA) [compound 416907] | 90 |

Same assay, conditions: HepG2 cells, lipofectin, gapmers targeted to nucleobases 1062 to 1091 of SEQ ID NO: 1

| Substance | % inhibition [%] |
| --- | --- |
| 416909 (antisense eA*eT*eT*d[5mC]*dT*dT*dT*dG*dG*dG*d[5mC]*d[5mC]*dA*dT*dT*d[5mC]*d[5mC]*eT*eG*eG) [compound 416909] | 78 |
| 416910 (antisense eG*eA*eT*dT*d[5mC]*dT*dT*dT*dG*dG*dG*d[5mC]*d[5mC]*dA*dT*dT*d[5mC]*e[5mC]*eT*eG) [compound 416910] | 90 |
| 416911 (antisense eA*eG*eA*dT*dT*d[5mC]*dT*dT*dT*dG*dG*dG*d[5mC]*d[5mC]*dA*dT*dT*e[5mC]*e[5mC]*eT) [compound 416911] | 90 |
| 416912 (antisense eG*eA*eG*dA*dT*dT*d[5mC]*dT*dT*dT*dG*dG*dG*d[5mC]*d[5mC]*dA*dT*eT*e[5mC]*e[5mC]) [compound 416912] | 92 |
| 416913 (antisense eT*eG*eA*dG*dA*dT*dT*d[5mC]*dT*dT*dT*dG*dG*dG*d[5mC]*d[5mC]*dA*eT*eT*e[5mC]) [compound 416913] | 93 |
| 416914 (antisense eT*eT*eG*dA*dG*dA*dT*dT*d[5mC]*dT*dT*dT*dG*dG*dG*d[5mC]*d[5mC]*eA*eT*eT) [compound 416914] | 87 |
| 416915 (antisense eT*eT*eT*dG*dA*dG*dA*dT*dT*d[5mC]*dT*dT*dT*dG*dG*dG*d[5mC]*e[5mC]*eA*eT) [compound 416915] | 79 |
| 416916 (antisense e[5mC]*eT*eT*dT*dG*dA*dG*dA*dT*dT*d[5mC]*dT*dT*dT*dG*dG*dG*e[5mC]*e[5mC]*eA) [compound 416916] | 91 |
| 416917 (antisense eT*e[5mC]*eT*dT*dT*dG*dA*dG*dA*dT*dT*d[5mC]*dT*dT*dT*dG*dG*eG*e[5mC]*e[5mC]) [compound 416917] | 92 |
| 416918 (antisense eT*eT*e[5mC]*dT*dT*dT*dG*dA*dG*dA*dT*dT*d[5mC]*dT*dT*dT*dG*eG*eG*e[5mC]) [compound 416918] | 63 |
| 416919 (antisense eT*eT*eT*d[5mC]*dT*dT*dT*dG*dA*dG*dA*dT*dT*d[5mC]*dT*dT*dT*eG*eG*eG) [compound 416919] | 27 |
